Assay [1] is filed under the species Rattus norvegicus. Nature of the assay: The compound was tested for its ability to stimulate amylase secretion from rat pancreatic acini. It is filed as functional, organism-based.
For assay [2], the species on record is Rattus norvegicus. Briefly: Antagonist activity against amylase secretion from rat pancreatic acini. Type of assay: functional, organism-based.
The target in assay [3] is T1, Gastrin/cholecystokinin type B receptor (Rattus norvegicus, UniProt P30553).
T1 sequence (P30553 whole entry): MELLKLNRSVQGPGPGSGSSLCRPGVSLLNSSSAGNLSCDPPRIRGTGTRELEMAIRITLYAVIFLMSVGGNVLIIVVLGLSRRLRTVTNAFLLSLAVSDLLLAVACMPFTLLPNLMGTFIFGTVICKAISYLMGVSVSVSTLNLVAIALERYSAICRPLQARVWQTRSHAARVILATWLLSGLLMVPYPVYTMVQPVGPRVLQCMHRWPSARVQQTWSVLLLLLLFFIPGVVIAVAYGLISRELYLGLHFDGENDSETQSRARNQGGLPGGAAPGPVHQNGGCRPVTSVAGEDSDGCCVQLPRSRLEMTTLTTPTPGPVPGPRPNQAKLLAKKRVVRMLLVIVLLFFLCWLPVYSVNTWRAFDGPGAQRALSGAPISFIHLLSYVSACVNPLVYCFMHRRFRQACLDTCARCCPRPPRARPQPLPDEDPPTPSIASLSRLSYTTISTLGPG
Nature of the assay: In vitro binding affinity against Cholecystokinin type B receptor of rat pancreatic acini.

Regarding `CCCC[C@H](NC(=O)[C@H](Cc1ccc(OS(=O)(=O)O)cc1)NC(=O)OC(C)(C)C)C(=O)NCC(=O)N[C@@H](Cc1c[nH]c2ccccc12)C(=O)N[C@@H](CCCC)C(=O)N[C@@H](CC(=O)O)C(=O)NC(Cc1ccccc1)Cc1ccccc1`, a half-maximal response in assay [1] (Rattus norvegicus) (EC50) required 700 nM. This lies in the sub-micromolar range.

With `CCCC[C@H](NC(=O)[C@H](Cc1ccc(OS(=O)(=O)O)cc1)NC(=O)OC(C)(C)C)C(=O)NCC(=O)N[C@@H](Cc1c[nH]c2ccccc12)C(=O)N[C@@H](CCCC)C(=O)N[C@@H](CC(=O)O)C(=O)NCC(c1ccccc1)c1ccccc1`, the response in assay [1] (Rattus norvegicus) was half-maximal at 32 nM (EC50).

For `CCCC[C@H](NC(=O)[C@H](Cc1ccc(OS(=O)(=O)O)cc1)NC(=O)OC(C)(C)C)C(=O)NCC(=O)N[C@H](Cc1c[nH]c2ccccc12)C(=O)N[C@@H](CCCC)C(=O)N[C@@H](CC(=O)O)C(=O)N(C)CCc1ccccc1`, the IC50 in assay [2] amounted to 26000 nM.

In the case of `CCCC[C@H](NC(=O)[C@H](Cc1ccc(OS(=O)(=O)O)cc1)NC(=O)OC(C)(C)C)C(=O)NCC(=O)N[C@@H](Cc1c[nH]c2ccccc12)C(=O)N[C@@H](CCCC)C(=O)N[C@@H](CC(=O)O)C(=O)NCCc1ccccc1`, the EC50 in assay [1] was 30 nM. In assay [3], this compound registered an IC50 of 100 nM.

Regarding `CCCC[C@H](NC(=O)C(Cc1c[nH]c2ccccc12)NC(=O)CNC(=O)[C@H](CCCC)NC(=O)[C@H](Cc1ccc(OS(=O)(=O)O)cc1)NC(=O)OC(C)(C)C)C(=O)N[C@@H](CC(=O)O)C(=O)NCCc1ccccc1` (single isomer, unassigned), in assay [1], a half-maximal effect (EC50) was put at 70 nM. This compound also displayed an IC50 in assay [3] of 48 nM.

`CCCC[C@H](NC(=O)[C@H](Cc1ccc(OS(=O)(=O)O)cc1)NC(=O)OC(C)(C)C)C(=O)NCC(=O)N[C@H](Cc1c[nH]c2ccccc12)C(=O)N[C@@H](CCCC)C(=O)N[C@@H](CC(=O)O)C(=O)NCC(c1ccccc1)c1ccccc1` showed an EC50 in assay [1] (Rattus norvegicus) of 9300 nM.

`CCCC[C@H](NC(=O)[C@H](Cc1ccc(OS(=O)(=O)O)cc1)NC(=O)OC(C)(C)C)C(=O)NCC(=O)N[C@H](Cc1c[nH]c2ccccc12)C(=O)N[C@@H](CCCC)C(=O)N[C@@H](CC(=O)O)C(=O)NC(Cc1ccccc1)Cc1ccccc1`: a half-maximal response in assay [1] (Rattus norvegicus) (EC50) required 86000 nM.

Take `CCCC[C@H](NC(=O)[C@H](Cc1ccc(OS(=O)(=O)O)cc1)NC(=O)OC(C)(C)C)C(=O)NCC(=O)N[C@H](Cc1c[nH]c2ccccc12)C(=O)N[C@@H](CCCC)C(=O)N[C@@H](CC(=O)O)C(=O)NCCc1ccccc1`: the IC50 in assay [3] was 500 nM; in assay [2], 30000 nM.

The EC50 is the midpoint of the concentration-response curve. In general, IC50 refers to the concentration at which inhibition is half-maximal. A low value points to higher potency.
